This passage reports IC50, DC50 and Dmax results from patent publication US20240368194A1, “IRAK4 DEGRADATION AGENT, AND PREPARATION METHOD THEREFOR AND USE THEREOF” (SHANGHAI LEADINGTAC PHARMACEUTICAL CO. LTD., priority 2021, published 2024).

In assay [1] the target is IRAK4 kinase (Homo sapiens (Human), UniProt Q9NWZ3). Put plainly: IRAK4 kinase activity test (KinEASE-STK S1 HTRF kit). The following applies: 2.5 nM IRAK4 kinase, 7 μM ATP, 37° C. 120 min. The class given is biochemical. The gist of the method:
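Human IRAK4 (2.5 nM) with 1 μM biotinylated peptide substrate and 7 μM ATP, incubated 120 min at 37 °C. HTRF read-out (Eu anti-phospho-Ser/Thr antibody, XL665-streptavidin; 665/620 nm ratio) after 1 h at room temperature. IC50 from inhibition relative to control by non-linear fit of log concentration.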
Background: In TR-FRET formats the signal depends on donor and acceptor labels being close together.

Assay [2] deals with IRAK4 protein in THP-1 cells (Homo sapiens (Human), UniProt Q9NWZ3). Put plainly: Degradation of IRAK4 in THP-1 cells, human IRAK4 AlphaLISA assay. The class given is cell-based. The following applies: 24 h incubation. An outline of the steps: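 THP-1 cells, after overnight plating, exposed 24 h at 37 °C to compound at 0.03-3000 nM final. Lysate IRAK4 read by Western blot and by AlphaLISA (acceptor beads 10 μg/mL, biotin anti-IRAK4 1 nM, donor beads 40 μg/mL, 23 °C). DC50 and Dmax from log concentration-response fit.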
Sequence of IRAK4 protein in THP-1 cells (Q9NWZ3 whole entry): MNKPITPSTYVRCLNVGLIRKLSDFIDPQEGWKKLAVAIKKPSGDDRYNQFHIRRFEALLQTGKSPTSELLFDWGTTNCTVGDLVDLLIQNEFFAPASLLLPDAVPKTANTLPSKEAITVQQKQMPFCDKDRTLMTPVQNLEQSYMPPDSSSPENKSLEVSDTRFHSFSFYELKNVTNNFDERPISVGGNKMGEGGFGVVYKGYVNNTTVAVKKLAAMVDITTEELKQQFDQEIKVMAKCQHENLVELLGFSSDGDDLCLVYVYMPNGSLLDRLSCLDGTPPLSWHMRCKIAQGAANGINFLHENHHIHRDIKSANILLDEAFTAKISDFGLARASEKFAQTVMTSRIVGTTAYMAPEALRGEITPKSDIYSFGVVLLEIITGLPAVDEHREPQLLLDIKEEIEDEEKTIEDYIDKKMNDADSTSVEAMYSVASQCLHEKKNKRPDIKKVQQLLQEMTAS
On the technique in general: Alpha assays give light when donor and acceptor beads are brought close together.

The subject of assay [3] is IL-6 production in LPS-induced human whole blood. Put plainly: IL-6 secreted by LPS-induced normal human whole blood PBMCs (IL-6 AlphaLISA). It is filed as cell-based. As to conditions: compound 20 h, then LPS 100 ng/mL 5 h. As to the method: Fresh normal human whole blood (healthy people from 22-50 years of age, freshly collected blood) anticoagulated with heparin sodium was plated onto a 96-well clear cell plate (Labserv, 310109008) at 190 μL/well, and 10 μL of diluted compound solution was then added to corresponding wells, such that the final concentration of the compound fell within the range of 10-20,000 nM. The final concentration of dimethyl sulfoxide was 0.1%. The compound-treated cell plate was sealed with a plate-sealing membrane. After the plate was incubated in a 37° C., 5% carbon dioxide incubator for 20 h, 10 μL of LPS (0111:B4) (Sigma, L4391) was added, making a final concentration of 100 ng/mL. […]
IL-6 standard solutions with different concentrations, ranging from […], were prepared by following the instructions for use of the product, 2 μL of each of the IL-6 standard solutions and test samples of cell supernatant were added to a white 384-well plate (PerkinElmer, 6007299), and 8 μL of a mixed solution of 5× anti-IL-6 receptor beads (PerminElmer, final concentration of 10 μg/mL) and biotin-labeled anti-IL-6 antibody (PerminElmer, final concentration of 1 nM) was then added to each well. […] After the incubation was complete, AlphaLISA signal values were measured on a microplate reader EnVision (PerkinElmer, 2105) in the AlphaScreen standard mode. […]

Assay [4] concerns IL-6 production in LPS-induced human PBMCs. Kind of assay: IL-6 secreted by LPS-induced human PBMCs (IL-6 AlphaLISA). As to conditions: PBMC, compound 1 h or 20 h, then LPS 100 ng/mL 5 h, read-out: hPBMC IC50. The class given is cell-based. The protocol:
Frozen human PBMCs (Milestone, PB010C) were thawed and resuspended in RPMI 1640 medium (Gibco, A1049101) supplemented with 10%/o fetal bovine serum (Gibco, 10099141), 100 U/mL penicillin and 100 sg/mL streptomycin (Gibco, 15140122). On the same day. PBMCs were plated onto a 96-well clear cell plate (Labserv, 310109008) at 150 μL/well, with a cell density of 2×10^5 cells/well. Then 50 μL of diluted compound solution was added to corresponding wells with cells, such that the final concentration of the compound fell within the range of 0.026-10,000 nM. The final concentration of DMSO was 0.25%. […]
IL-6 standard solutions with different concentrations, ranging from […], were prepared by following the instructions for use of the product, 2 μL of each of the IL-6 standard solutions and test samples of cell supernatant were added to a white 384-well plate (PerkinElmer, 6007299), and 8 μL of a mixed solution of 5×anti-IL-6 receptor beads (final concentration of 10 μg/mL) and biotin-labeled anti-IL-6 antibody (final concentration of 1 nM) was then added to each well. […] After the incubation was complete, AlphaLISA signal values were measured on a microplate reader EnVision (PerkinElmer, 2105) in the AlphaScreen standard mode. […] The inhibition rate of the compound at each concentration was calculated by comparing the IL-6 concentration with that of the control group. […]

Sequence of IRAK4 kinase (Q9NWZ3 whole entry): as above

With `O=C1CCN(c2cc(C(=O)N3CCC4(CCC(CN5CCC(n6cc(NC(=O)c7cnn8ccc(N9C[C@H]%10C[C@@H]9CO%10)nc78)c(C(F)F)n6)CC5)CC4)CC3)ccc2Cl)C(=O)N1` [Example 1, 5-((1R,4R)-2-oxa-5-azabicyclo[2.2.1]heptan-5-yl)-N-(1-(1-((3-(4-chloro-3-(2,4-dioxotetrahydropyrimidin-1(2H)-yl)benzoyl)-3-azaspiro[5.5]undecan-9-yl)methyl)piperidin-4-yl)-3-(difluoromethyl)-1H-pyrazol-4-yl)pyrazolo[1,5-a]pyrimidine-3-carboxamide], the IC50 in assay [1] was 30.3 nM; in assay [3], 287 nM; in assay [4], 3.1 nM. In assay [2], this compound showed a DC50 of 3.7 nM. Also, the Dmax in assay [2] came to 90%.

As to `O=C1CCN(c2cc(C(=O)N3CCC4(CCN(C[C@H]5CC[C@H](n6cc(NC(=O)c7cnn8ccc(N9C[C@H]%10C[C@@H]9CO%10)nc78)c(C(F)F)n6)CC5)CC4)CC3)ccc2Cl)C(=O)N1` [Example 2, 5-((1R,4R)-2-oxa-5-azabicyclo[2.2.1]heptan-5-yl)-N-(1-((1r,4R)-4-((9-(4-chloro-3-(2,4-dioxotetrahydropyrimidin-1(2H)-yl)benzoyl)-3,9-diazaspiro[5.5]undecan-3-yl)methyl)cyclohexyl)-3-(difluoromethyl)-1H-pyrazol-4-yl)pyrazolo[1,5-a]pyrimidine-3-carboxamide], the IC50 came to 15.5 nM in assay [1], 246 nM in assay [3] and 2.2 nM in assay [4]. Moreover, in assay [2], the DC50 is 1.8 nM. The Dmax in assay [2] amounted to 95.8%.

For the compound `O=C1CCN(c2cc(C(=O)N3CCC4(CCC(CCN5CCC(n6cc(NC(=O)c7cnn8ccc(N9C[C@H]%10C[C@@H]9CO%10)nc78)c(C(F)F)n6)CC5)CC4)CC3)ccc2Cl)C(=O)N1` [Example 43, 5-((1R,4R)-2-oxa-5-azabicyclo[2.2.1]heptan-5-yl)-N-(1-(1-(2-(3-(4-chloro-3-(2,4-dioxotetrahydropyrimidin-1(2H)-yl)benzoyl)-3-azaspiro[5.5]undecan-9-yl)ethyl)piperidin-4-yl)-3-(difluoromethyl)-1H-pyrazol-4-yl)pyrazolo[1,5-a]pyrimidine-3-carboxamide], the IC50 in assay [1] is 45 nM. In assay [2], this compound gave a DC50 of 15.1 nM and a Dmax of 79.5%.

The term IC50 denotes the concentration that gives 50% inhibition. The term DC50 denotes the concentration giving 50% degradation. A word on the Dmax: it is the greatest extent of degradation seen. The low end stands for shallow degradation, the high end for deep degradation.
